Results published in the supplement of paper PMC10307832.

Experiments:
Experiment in all cases: relative viability (nuclei count vs DMSO), 5 days (fraction); higher = more cells survive
[1] = compound: COc1cc2ncn(-c3cc(OCc4ccccc4C(F)(F)F)c(C(N)=O)s3)c2cc1OC + NC(=O)Nc1cc(-c2cccc(F)c2)sc1C(=O)N[C@H]1CCCNC1 [AZD7762] (partner 0.2 µM)
Method in brief: (§1)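 Relative viability divides the nuclei count in treated wells by that in vehicle wells. Lung cancer cell lines were seeded in 1536-well plates, dosed by pin tool the next day, and fixed and stained after 5 days in one step with final 0.05% Triton X-100, 1% formaldehyde and 1 ug/ml Hoechst. Dosing was a single drug or a fixed anchor-drug dose plus five library-drug doses (not always all listed) in √10 steps, and values are medians of duplicate plates imaged at 4×.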

[2] = compound: COc1cc2ncn(-c3cc(OCc4ccccc4C(F)(F)F)c(C(N)=O)s3)c2cc1OC + Nc1nc2[nH]cc(CCc3ccc(C(=O)N[C@@H](CCC(=O)O)C(=O)O)cc3)c2c(=O)[nH]1 [Pemetrexed] (partner 0.2 µM)
Method in brief: as §1

[3] = compound: COc1cc2ncn(-c3cc(OCc4ccccc4C(F)(F)F)c(C(N)=O)s3)c2cc1OC + COc1cccc2cc(-c3nc([C@H]4CC[C@H](C(=O)O)CC4)n4ncnc(N)c34)[nH]c12 [OSI-027] (partner 0.5 µM)
Method in brief: as §1

[4] = compound: COc1cc2ncn(-c3cc(OCc4ccccc4C(F)(F)F)c(C(N)=O)s3)c2cc1OC + COc1cc2c(Oc3ccc(NC(=O)C4(C(=O)Nc5ccc(F)cc5)CC4)cc3F)ccnc2cc1OCCCN1CCOCC1 [Foretinib] (partner 0.25 µM)
Method in brief: as §1

HCC-827 was tested, and the relative viability ([1]; first compound 0.05 µM) was 0.229, the relative viability ([1]; first compound 0.1581 µM) was 0.246 and the relative viability ([1]; first compound 0.5 µM) was 0.185. For the same cell line, the relative viability ([1]; first compound 1.581 µM) was 0.201, the relative viability ([1]; first compound 5 µM) was 0.161 and the relative viability ([2]; first compound 0.05 µM) was 0.269. For the same cell line, the relative viability ([2]; first compound 0.1581 µM) was 0.304, the relative viability ([2]; first compound 0.5 µM) was 0.227 and the relative viability ([2]; first compound 1.581 µM) was 0.259. The relative viability ([2]; first compound 5 µM) was 0.263, the relative viability ([3]; first compound 0.05 µM) was 0.794 and the relative viability ([3]; first compound 0.1581 µM) was 0.9. It also gave a relative viability ([3]; first compound 0.5 µM) of 0.564, a relative viability ([3]; first compound 1.581 µM) of 0.228 and a relative viability ([3]; first compound 5 µM) of 0.14. The relative viability ([4]; first compound 0.05 µM) was 1.04, the relative viability ([4]; first compound 0.1581 µM) was 0.987 and the relative viability ([4]; first compound 0.5 µM) was 0.718. The relative viability ([4]; first compound 1.581 µM) was 0.277 and the relative viability ([4]; first compound 5 µM) was 0.213.

Work on HCC-78 yielded a relative viability ([1]; first compound 0.05 µM) of 0.795, a relative viability ([1]; first compound 0.1581 µM) of 0.653 and a relative viability ([1]; first compound 0.5 µM) of 0.493. For the same cell line, the relative viability ([1]; first compound 1.581 µM) was 0.565, the relative viability ([1]; first compound 5 µM) was 0.422 and the relative viability ([2]; first compound 0.05 µM) was 0.967. For the same cell line, the relative viability ([2]; first compound 0.1581 µM) was 0.903, the relative viability ([2]; first compound 0.5 µM) was 0.895 and the relative viability ([2]; first compound 1.581 µM) was 0.939. For the same cell line, the relative viability ([2]; first compound 5 µM) was 0.87, the relative viability ([3]; first compound 0.05 µM) was 0.444 and the relative viability ([3]; first compound 0.1581 µM) was 0.414. For the same cell line, the relative viability ([3]; first compound 0.5 µM) was 0.343, the relative viability ([3]; first compound 1.581 µM) was 0.288 and the relative viability ([3]; first compound 5 µM) was 0.244. It also gave a relative viability ([4]; first compound 0.05 µM) of 0.574, a relative viability ([4]; first compound 0.1581 µM) of 0.585 and a relative viability ([4]; first compound 0.5 µM) of 0.469. For the same cell line, the relative viability ([4]; first compound 1.581 µM) was 0.327 and the relative viability ([4]; first compound 5 µM) was 0.379.

In the case of NCI-H2085, the relative viability ([1]; first compound 0.05 µM) is reported as 0.969, the relative viability ([1]; first compound 0.1581 µM) is reported as 0.964 and the relative viability ([1]; first compound 0.5 µM) is reported as 0.862. For the same cell line, the relative viability ([1]; first compound 1.581 µM) was 0.39, the relative viability ([1]; first compound 5 µM) was 0.248 and the relative viability ([2]; first compound 0.05 µM) was 0.85. For the same cell line, the relative viability ([2]; first compound 0.1581 µM) was 0.831, the relative viability ([2]; first compound 0.5 µM) was 0.719 and the relative viability ([2]; first compound 1.581 µM) was 0.33. For the same cell line, the relative viability ([2]; first compound 5 µM) was 0.292, the relative viability ([3]; first compound 0.05 µM) was 0.739 and the relative viability ([3]; first compound 0.1581 µM) was 0.731. The relative viability ([3]; first compound 0.5 µM) was 0.316, the relative viability ([3]; first compound 1.581 µM) was 0.295 and the relative viability ([3]; first compound 5 µM) was 0.203. The relative viability ([4]; first compound 0.05 µM) was 0.931, the relative viability ([4]; first compound 0.1581 µM) was 1 and the relative viability ([4]; first compound 0.5 µM) was 0.566. It also gave a relative viability ([4]; first compound 1.581 µM) of 0.294 and a relative viability ([4]; first compound 5 µM) of 0.31.

In the case of PC-3 [JPC-3], the relative viability ([1]; first compound 0.05 µM) is reported as 0.833, the relative viability ([1]; first compound 0.1581 µM) is reported as 0.741 and the relative viability ([1]; first compound 0.5 µM) is reported as 0.597. The relative viability ([1]; first compound 1.581 µM) was 0.238, the relative viability ([1]; first compound 5 µM) was 0.252 and the relative viability ([2]; first compound 0.05 µM) was 1.31. The relative viability ([2]; first compound 0.1581 µM) was 1.1, the relative viability ([2]; first compound 0.5 µM) was 0.611 and the relative viability ([2]; first compound 1.581 µM) was 0.28. It also gave a relative viability ([2]; first compound 5 µM) of 0.254, a relative viability ([3]; first compound 0.05 µM) of 0.79 and a relative viability ([3]; first compound 0.1581 µM) of 0.767. It also gave a relative viability ([3]; first compound 0.5 µM) of 0.423, a relative viability ([3]; first compound 1.581 µM) of 0.169 and a relative viability ([3]; first compound 5 µM) of 0.198. It also gave a relative viability ([4]; first compound 0.05 µM) of 0.96, a relative viability ([4]; first compound 0.1581 µM) of 0.992 and a relative viability ([4]; first compound 0.5 µM) of 0.402. For the same cell line, the relative viability ([4]; first compound 1.581 µM) was 0.238 and the relative viability ([4]; first compound 5 µM) was 0.233.

For NCI-H2342, the relative viability ([1]; first compound 0.05 µM) was 0.593, the relative viability ([1]; first compound 0.1581 µM) was 0.476 and the relative viability ([1]; first compound 0.5 µM) was 0.374. It also gave a relative viability ([1]; first compound 1.581 µM) of 0.38, a relative viability ([1]; first compound 5 µM) of 0.425 and a relative viability ([2]; first compound 0.05 µM) of 0.773. It also gave a relative viability ([2]; first compound 0.1581 µM) of 0.782, a relative viability ([2]; first compound 0.5 µM) of 0.56 and a relative viability ([2]; first compound 1.581 µM) of 0.518. The relative viability ([2]; first compound 5 µM) was 0.655, the relative viability ([3]; first compound 0.05 µM) was 0.614 and the relative viability ([3]; first compound 0.1581 µM) was 0.579. For the same cell line, the relative viability ([3]; first compound 0.5 µM) was 0.56, the relative viability ([3]; first compound 1.581 µM) was 0.416 and the relative viability ([3]; first compound 5 µM) was 0.375. For the same cell line, the relative viability ([4]; first compound 0.05 µM) was 1.13, the relative viability ([4]; first compound 0.1581 µM) was 0.951 and the relative viability ([4]; first compound 0.5 µM) was 0.876. For the same cell line, the relative viability ([4]; first compound 1.581 µM) was 0.475 and the relative viability ([4]; first compound 5 µM) was 0.567.

HCC-44 was tested, and the relative viability ([1]; first compound 0.05 µM) was 1.03, the relative viability ([1]; first compound 0.1581 µM) was 1.04 and the relative viability ([1]; first compound 0.5 µM) was 0.991. For the same cell line, the relative viability ([1]; first compound 1.581 µM) was 0.549, the relative viability ([1]; first compound 5 µM) was 0.375 and the relative viability ([2]; first compound 0.05 µM) was 0.633. For the same cell line, the relative viability ([2]; first compound 0.1581 µM) was 0.625, the relative viability ([2]; first compound 0.5 µM) was 0.685 and the relative viability ([2]; first compound 1.581 µM) was 0.338. The relative viability ([2]; first compound 5 µM) was 0.342, the relative viability ([3]; first compound 0.05 µM) was 0.626 and the relative viability ([3]; first compound 0.1581 µM) was 0.484. The relative viability ([3]; first compound 0.5 µM) was 0.216, the relative viability ([3]; first compound 1.581 µM) was 0.187 and the relative viability ([3]; first compound 5 µM) was 0.161.

Work on NCI-H2228 yielded a relative viability ([2]; first compound 0.05 µM) of 0.329, a relative viability ([2]; first compound 0.1581 µM) of 0.352 and a relative viability ([2]; first compound 0.5 µM) of 0.265. The relative viability ([2]; first compound 1.581 µM) was 0.153, the relative viability ([2]; first compound 5 µM) was 0.238 and the relative viability ([3]; first compound 0.05 µM) was 0.662. For the same cell line, the relative viability ([3]; first compound 0.1581 µM) was 0.558, the relative viability ([3]; first compound 0.5 µM) was 0.192 and the relative viability ([3]; first compound 1.581 µM) was 0.134. For the same cell line, the relative viability ([3]; first compound 5 µM) was 0.179, the relative viability ([4]; first compound 0.05 µM) was 0.85 and the relative viability ([4]; first compound 0.1581 µM) was 0.739. For the same cell line, the relative viability ([4]; first compound 0.5 µM) was 0.351, the relative viability ([4]; first compound 1.581 µM) was 0.1 and the relative viability ([4]; first compound 5 µM) was 0.162.

ABC-1 showed a relative viability ([1]; first compound 0.05 µM) of 0.782, a relative viability ([1]; first compound 0.1581 µM) of 0.487 and a relative viability ([1]; first compound 0.5 µM) of 0.741. The relative viability ([1]; first compound 1.581 µM) was 0.631, the relative viability ([1]; first compound 5 µM) was 1.01 and the relative viability ([3]; first compound 0.05 µM) was 0.629. The relative viability ([3]; first compound 0.1581 µM) was 0.437, the relative viability ([3]; first compound 0.5 µM) was 0.248 and the relative viability ([3]; first compound 1.581 µM) was 0.207. It also gave a relative viability ([3]; first compound 5 µM) of 0.191, a relative viability ([4]; first compound 0.05 µM) of 1.2 and a relative viability ([4]; first compound 0.1581 µM) of 1.08. The relative viability ([4]; first compound 0.5 µM) was 0.758, the relative viability ([4]; first compound 1.581 µM) was 0.225 and the relative viability ([4]; first compound 5 µM) was 0.239.

For COR-L23, the relative viability ([2]; first compound 0.05 µM) was 0.201, the relative viability ([2]; first compound 0.1581 µM) was 0.208 and the relative viability ([2]; first compound 0.5 µM) was 0.166. It also gave a relative viability ([2]; first compound 1.581 µM) of 0.156, a relative viability ([2]; first compound 5 µM) of 0.154 and a relative viability ([3]; first compound 0.05 µM) of 0.697. The relative viability ([3]; first compound 0.1581 µM) was 0.644, the relative viability ([3]; first compound 0.5 µM) was 0.679 and the relative viability ([3]; first compound 1.581 µM) was 0.117. For the same cell line, the relative viability ([3]; first compound 5 µM) was 0.0946, the relative viability ([4]; first compound 0.05 µM) was 0.94 and the relative viability ([4]; first compound 0.1581 µM) was 1.04. For the same cell line, the relative viability ([4]; first compound 0.5 µM) was 0.663, the relative viability ([4]; first compound 1.581 µM) was 0.158 and the relative viability ([4]; first compound 5 µM) was 0.118.
